Measurements from PubChem BioAssay AID328 (DTP/NCI, 2004).
Several values for one entry are separate records, joined by “and”; a condition that tells them apart may be missing. Equal entries are not always repeated. Toxic doses and inconclusive results are not listed.

Test system: BDF1 mice, P388 leukemia ip, median survival T/C
Test: NCI In Vivo Anticancer Drug Screen. Data for tumor model P388 Leukemia (intraperitoneal) in B6D2F1 (BDF1) mice
Conditions: endpoint: median survival time, higher = longer survival
Method in brief: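 Compound-treated tumour-bearing mice were compared with vehicle-treated controls. Survival was recorded, and the value is the treated-group measurement divided by the control-group measurement (T/C).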

[1] = dose: 6.25 mg/kg/injection, schedule: Q04DX003 (ip), vehicle: saline
[2] = dose: 12.5 mg/kg/injection, schedule: Q04DX003 (ip), vehicle: saline
[3] = dose: 50.0 mg/kg/injection, schedule: Q01DX009 (ip), vehicle: saline with Tween-80
[4] = dose: 100.0 mg/kg/injection, schedule: Q01DX009 (ip), vehicle: saline with Tween-80
[5] = dose: 100.0 mg/kg/injection, schedule: Q04DX003 (ip), vehicle: saline with Tween-80
[6] = dose: 200.0 mg/kg/injection, schedule: Q01DX009 (ip), vehicle: saline with Tween-80
[7] = dose: 200.0 mg/kg/injection, schedule: Q04DX003 (ip), vehicle: saline with Tween-80
[8] = dose: 400.0 mg/kg/injection, schedule: Q01DX009 (ip), vehicle: saline with Tween-80
[9] = dose: 400.0 mg/kg/injection, schedule: Q04DX003 (ip), vehicle: saline with Tween-80
[10] = dose: 25.0 mg/kg/injection, schedule: Q01DX009 (ip), vehicle: saline

## Cc1cc2nc(CBr)c(CBr)nc2cc1C
dose: 1.56 mg/kg/injection, schedule: Q01DX009 (ip), vehicle: saline
  T/C: 120 % of control
dose: 3.12 mg/kg/injection, schedule: Q01DX009 (ip), vehicle: saline
  T/C: 120 % of control
dose: 3.12 mg/kg/injection, schedule: Q04DX003 (ip), vehicle: saline
  T/C: 95 % of control
dose: 6.25 mg/kg/injection, schedule: Q01DX009 (ip), vehicle: saline
  T/C: 95 % of control
[1]
  T/C: 100 % of control
dose: 8.75 mg/kg/injection, schedule: Q01DX001 (ip), vehicle: Klucel (hydroxypropylcellulose) (HPC)
  T/C: 94 % of control
[2]
  T/C: 90 % of control
dose: 17.5 mg/kg/injection, schedule: Q01DX001 (ip), vehicle: Klucel (hydroxypropylcellulose) (HPC)
  T/C: 88 % of control
dose: 18.0 mg/kg/injection, schedule: Q04DX003 (ip), vehicle: saline
  T/C: 90 % of control
dose: 35.0 mg/kg/injection, schedule: Q01DX001 (ip), vehicle: Klucel (hydroxypropylcellulose) (HPC)
  T/C: 88 % of control

## Cc1c2oc3c(C)ccc(C(=O)NCCCc4ccccc4)c3nc-2c(C(=O)NCCCc2ccccc2)c(N)c1=O
dose: 100.0 mg/kg/injection, schedule: Q04DX002 (ip), vehicle: DMSO
  T/C: 100 % of control
dose: 200.0 mg/kg/injection, schedule: Q04DX002 (ip), vehicle: DMSO
  T/C: 90 % of control

## Cc1ccccc1P(=O)(c1ccccc1C)c1ccccc1C
dose: 25.0 mg/kg/injection, schedule: Q01DX009 (ip), vehicle: saline with Tween-80
  T/C: 90 % of control
[3]
  T/C: 94 % of control
[4]
  T/C: 94 % of control

## CC[N+](CC)(CC)CCC[N+](CC)(CC)CC
dose: 50.0 mg/kg/injection, schedule: Q01DX009 (ip), vehicle: water
  T/C: 89 % of control
dose: 100.0 mg/kg/injection, schedule: Q04DX003 (ip), vehicle: water
  T/C: 109 % of control
dose: 200.0 mg/kg/injection, schedule: Q04DX003 (ip), vehicle: water
  T/C: 90 % of control

## COc1ccc(N=C(c2ccccc2)c2ccccc2)cc1
[4]
  T/C: 91 % of control
[5]
  T/C: 92 % of control
[6]
  T/C: 108 % of control
[7]
  T/C: 100 % of control
[8]
  T/C: 108 % of control
[9]
  T/C: 96 % of control

## O=C(CC(O)(C(F)(F)Cl)C(F)(F)Cl)c1cccs1
dose: 100.0 mg/kg/injection, schedule: Q01DX001 (ip), vehicle: saline with Tween-80
  T/C: 95 % of control
dose: 200.0 mg/kg/injection, schedule: Q01DX001 (ip), vehicle: saline with Tween-80
  T/C: 100 % of control
dose: 400.0 mg/kg/injection, schedule: Q01DX001 (ip), vehicle: saline with Tween-80
  T/C: 100 % of control

## Cc1c2oc3c(C)c(N)cc(C(=O)NC4C(=O)NC(C(C)C)C(=O)N5CCCC5C(=O)N(C)CC(=O)N(C)C(C(C)C)C(=O)OC4C)c3nc-2c(C(=O)NC2C(=O)NC(C(C)C)C(=O)N3CCCC3C(=O)N(C)CC(=O)N(C)C(C(C)C)C(=O)OC2C)c(N)c1=O (centres undefined)
dose: 75.0 micrograms/kg/injection, schedule: Q01DX009 (ip), vehicle: saline + alcohol
  T/C: 153 % of control
dose: 225.0 micrograms/kg/injection, schedule: Q04DX003 (ip), vehicle: saline + alcohol
  T/C: 151 % of control
dose: 450.0 micrograms/kg/injection, schedule: Q04DX003 (ip), vehicle: saline + alcohol
  T/C: 90 % of control

## COc1ccc2nc3cc(Cl)ccc3c(Cl)c2c1
[4]
  T/C: 95 % of control
[5]
  T/C: 109 % of control
[6]
  T/C: 95 % of control
[7]
  T/C: 100 % of control
[8]
  T/C: 95 % of control
[9]
  T/C: 109 % of control

## CCC(C)NC(=S)N/N=C\C=N/NC(=S)NC(C)CC (centres undefined)
dose: 75.0 mg/kg/injection, schedule: Q01DX009 (ip), vehicle: saline with Tween-80
  T/C: 99 % of control
dose: 150.0 mg/kg/injection, schedule: Q01DX009 (ip), vehicle: saline with Tween-80
  T/C: 92 % of control
dose: 300.0 mg/kg/injection, schedule: Q01DX009 (ip), vehicle: saline with Tween-80
  T/C: 103 % of control

## CC(O)C1(O)C(O)CC(OC2c3cc4c(c(O)c3[C@@H]3C[C@@]2(C)OC32C=c3cc[nH]c3=N2)C(=O)c2cccc(O)c2C4=O)OC1C (some centres undefined)
dose: 0.5 mg/kg/injection, schedule: Q01DX009 (ip), vehicle: saline with Tween-80
  T/C: 105 % of control
dose: 0.5 mg/kg/injection, schedule: Q01DX009 (ip), vehicle: saline
  T/C: 103 % of control and 109 % of control
dose: 1.0 mg/kg/injection, schedule: Q01DX009 (ip), vehicle: saline with Tween-80
  T/C: 119 % of control
dose: 1.0 mg/kg/injection, schedule: Q01DX009 (ip), vehicle: saline
  T/C: 118 % of control and 124 % of control
dose: 2.0 mg/kg/injection, schedule: Q01DX009 (ip), vehicle: saline with Tween-80
  T/C: 111 % of control
dose: 2.0 mg/kg/injection, schedule: Q01DX009 (ip), vehicle: saline
  T/C: 111 % of control and 118 % of control
dose: 4.0 mg/kg/injection, schedule: Q01DX009 (ip), vehicle: saline with Tween-80
  T/C: 117 % of control
dose: 8.0 mg/kg/injection, schedule: Q01DX009 (ip), vehicle: saline with Tween-80
  T/C: 122 % of control

## CCOC(=O)CCC(C)(C#N)c1ccccc1 (centres undefined)
[3]
  T/C: 100 % of control
[5]
  T/C: 95 % of control
[7]
  T/C: 91 % of control
[9]
  T/C: 100 % of control

## Cc1c[nH]c(=O)[nH]c1=O
dose: 390.0 mg/kg/injection, schedule: Q04DX003 (ip), vehicle: saline with Tween-80
  T/C: 98 % of control
dose: 390.0 mg/kg/injection, schedule: Q## X003 (ip), vehicle: saline with Tween-80
  T/C: 98 % of control
dose: 520.0 mg/kg/injection, schedule: Q04DX003 (ip), vehicle: saline with Tween-80
  T/C: 93 % of control
dose: 520.0 mg/kg/injection, schedule: Q## X003 (ip), vehicle: saline with Tween-80
  T/C: 93 % of control

## C[P+](c1ccc(Cl)cc1)(c1ccc(Cl)cc1)c1ccc(Cl)cc1
[1]
  T/C: 100 % of control
[2]
  T/C: 104 % of control
dose: 25.0 mg/kg/injection, schedule: Q04DX003 (ip), vehicle: saline
  T/C: 109 % of control

## COc1ccc(-n2c(=O)c(N=Nc3ccccc3)c(O)n(-c3ccc(C)cc3)c2=S)cc1
dose: 50.0 mg/kg/injection, schedule: Q01DX001 (ip), vehicle: saline sonified
  T/C: 90 % of control
dose: 100.0 mg/kg/injection, schedule: Q01DX001 (ip), vehicle: saline sonified
  T/C: 100 % of control
dose: 200.0 mg/kg/injection, schedule: Q01DX001 (ip), vehicle: saline sonified
  T/C: 100 % of control

## O=[N+]([O-])CC(O)c1ccc2ccccc2n1 (centres undefined)
[10]
  T/C: 86 % of control
dose: 50.0 mg/kg/injection, schedule: Q01DX009 (ip), vehicle: saline
  T/C: 86 % of control
dose: 50.0 mg/kg/injection, schedule: Q04DX003 (ip), vehicle: saline
  T/C: 109 % of control
dose: 100.0 mg/kg/injection, schedule: Q01DX009 (ip), vehicle: saline
  T/C: 89 % of control
dose: 100.0 mg/kg/injection, schedule: Q04DX003 (ip), vehicle: saline
  T/C: 95 % of control
dose: 200.0 mg/kg/injection, schedule: Q04DX003 (ip), vehicle: saline
  T/C: 90 % of control

## OC1CC2C3C4C1C1C2C3C41 (centres undefined)
dose: 100.0 mg/kg/injection, schedule: Q01DX001 (ip), vehicle: saline
  T/C: 95 % of control
dose: 100.0 mg/kg/injection, schedule: Q04DX003 (ip), vehicle: Klucel (hydroxypropylcellulose) (HPC)
  T/C: 115 % of control
dose: 200.0 mg/kg/injection, schedule: Q01DX001 (ip), vehicle: saline
  T/C: 86 % of control
dose: 200.0 mg/kg/injection, schedule: Q04DX003 (ip), vehicle: Klucel (hydroxypropylcellulose) (HPC)
  T/C: 115 % of control
dose: 400.0 mg/kg/injection, schedule: Q04DX003 (ip), vehicle: Klucel (hydroxypropylcellulose) (HPC)
  T/C: 90 % of control

## CC(=O)[O][Hg][c]1c(C)c(C)cc(C)c1C
dose: 12.5 mg/kg/injection, schedule: Q01DX009 (ip), vehicle: saline
  T/C: 108 % of control
[10]
  T/C: 121 % of control

## CCOC(CN=Cc1ccc(Cl)c(Cl)c1)OCC
dose: 100.0 mg/kg/injection, schedule: Q01DX001 (ip), vehicle: Klucel (hydroxypropylcellulose) (HPC)
  T/C: 100 % of control
dose: 200.0 mg/kg/injection, schedule: Q01DX001 (ip), vehicle: Klucel (hydroxypropylcellulose) (HPC)
  T/C: 100 % of control
dose: 400.0 mg/kg/injection, schedule: Q01DX001 (ip), vehicle: Klucel (hydroxypropylcellulose) (HPC)
  T/C: 95 % of control

## C1=CCC(C2OCC3(CO2)COC(C2CC=CCC2)OC3)CC1 (centres undefined)
dose: 100.0 mg/kg/injection, schedule: Q01DX009 (ip), vehicle: Klucel (hydroxypropylcellulose) (HPC)
  T/C: 96 % of control
dose: 200.0 mg/kg/injection, schedule: Q01DX009 (ip), vehicle: Klucel (hydroxypropylcellulose) (HPC)
  T/C: 88 % of control
dose: 400.0 mg/kg/injection, schedule: Q01DX009 (ip), vehicle: Klucel (hydroxypropylcellulose) (HPC)
  T/C: 88 % of control

## Cc1occc(=O)c1O
[3]
  T/C: 88 % of control
[4]
  T/C: 117 % of control
[6]
  T/C: 90 % of control
[8]
  T/C: 106 % of control
